“Also recorded” adds a separate entry of the source.
Columns and labels:
[1] = system: allergic conjunctivitis to ragweed (Ambrosia trifida); assay: Allergic conjunctivitis to ragweed in guinea pig: clinical scores (conjunctival edema and redness); format: in vivo, Hartley female guinea pig; details: for Statistical evaluation of clinical scores (Mann-Whitney test), P compared to No treatment group / Statistical evaluation of clinical scores (Mann-Whitney test), P compared to Dexamethasone / Statistical evaluation of clinical scores (Mann-Whitney test), P compared to Livostine: conjunctival edema and redness score 0-4+, 20 min after allergen challenge, 12 eyes per group, eye drops; for Clinical signs (conjunctival redness and edema scores), result in words: n=12, P<0.01, SD<10%, Mann-Whitney test
Procedure: The peptides of the present invention were analyzed in experimental model of allergic conjunctivitis to ragweed (giant ragweed; Ambrosia trifida) in guinea pig. Hartley strain of guinea pig was selected according to previous reports of conjunctival anaphylaxis (Calonge M., et al., Acta Ophthalmol 68; 470–476, 1990) and females were chosen based on the sex dimorphism of ocular mucosal immunity with the protective role of male hormones (Saruya S., et al., Act Soc Ophthalmol Jap 72; 833–845, 1968). The conjunctival redness and edema are main signs of seasonal allergic conjunctivitis and eosionphil infiltration is the hallmark of the conjunctival histology in patients with allergic conjunctivitis (Abelson M B., et al., Arch Ophthalmol. 101; 555–556, 1983; Butrus S I., et al., Int. Ophthalmol. Clin. 28; 324–328, 1988) 86 Hartley female guinea pigs, 200–250 g were housed in the animal facilities of the Asan Institute for Life Sciences (Korea), given guinea pig chow and water ad libitum, and cared for in accordance with the Declaration of Helsinki and the National Institute of Health Guide to the Care and Use of the Laboratory Animals (Korea). […] On day 15, immunized guinea pigs were divided 14 groups, 6 for each group. 11 anti-inflammatory peptides including new recombinants, dexamethasone eye drop (Maxidex, 0.1% dexamethasone, Alcon) and anti-histamine eye drop (Livostin, levocabastine, Janssen) were used for 13 groups, and no treatment for one group. Normal controls were employed as 6 non-immunized and non-treated guinea pigs. […] All the procedures were followed experimental model of allergic conjunctivitis described by Merayo-Lloves et al (Experimental model of allergic conjunctivitis to ragweed in guinea pig. Curr. Eye Res. 14; 487–494, 1995). Anti-inflammatory peptides were resolved in sterile saline (100 μmol/40 μl concentration). All peptides and dexamethasone eye solutions were challenged 3 hour prior to the last pollen application on day 15, 10 minutes after pollen application, and 4 times thereafter at the 3 hour interval. Conjunctival edema and redness were judged in room light and under an operating microscope (Zeiss, Germany). The evaluation was performed in a masked fashion at 20 min after allergen challenge and each clinical sign was scored on a scale 0–4+ (0 absent, 1+ minimal, 2+ mild, 3+ moderate, 4+ severe), adapted for guinea pig from previous report (Merayo-Lloves et al: Experimental model of allergic conjunctivitis to ragweed in guinea pig. Curr. Eye Res. 14; 487–494, 1995). Clinical scores of each group (12 eyes in each group) were analyzed.

[2] = system: eosinophil infiltration of conjunctiva; assay: Allergic conjunctivitis to ragweed in guinea pig: histology, eosinophil count in conjunctiva; format: in vivo, Hartley female guinea pig; details: for Statistical evaluation of eosinophil count (Mann-Whitney test), P compared to Livostine / Statistical evaluation of eosinophil count (Mann-Whitney test), P compared to No treatment group / Statistical evaluation of eosinophil count (Mann-Whitney test), P compared to Dexamethasone: eosinophils in three fields of conjunctiva (×400), 12 eyes per group, eye drops
Procedure: The peptides of the present invention were analyzed in experimental model of allergic conjunctivitis to ragweed (giant ragweed; Ambrosia trifida) in guinea pig. Hartley strain of guinea pig was selected according to previous reports of conjunctival anaphylaxis (Calonge M., et al., Acta Ophthalmol 68; 470–476, 1990) and females were chosen based on the sex dimorphism of ocular mucosal immunity with the protective role of male hormones (Saruya S., et al., Act Soc Ophthalmol Jap 72; 833–845, 1968). The conjunctival redness and edema are main signs of seasonal allergic conjunctivitis and eosionphil infiltration is the hallmark of the conjunctival histology in patients with allergic conjunctivitis (Abelson M B., et al., Arch Ophthalmol. 101; 555–556, 1983; Butrus S I., et al., Int. Ophthalmol. Clin. 28; 324–328, 1988)
86 Hartley female guinea pigs, 200–250 g were housed in the animal facilities of the Asan Institute for Life Sciences (Korea), given guinea pig chow and water ad libitum, and cared for in accordance with the Declaration of Helsinki and the National Institute of Health Guide to the Care and Use of the Laboratory Animals (Korea).
On day 15, immunized guinea pigs were divided 14 groups, 6 for each group. 11 anti-inflammatory peptides including new recombinants, dexamethasone eye drop (Maxidex, 0.1% dexamethasone, Alcon) and anti-histamine eye drop (Livostin, levocabastine, Janssen) were used for 13 groups, and no treatment for one group. Normal controls were employed as 6 non-immunized and non-treated guinea pigs. […] All the procedures were followed experimental model of allergic conjunctivitis described by Merayo-Lloves et al (Experimental model of allergic conjunctivitis to ragweed in guinea pig. Curr. Eye Res. 14; 487–494, 1995).
Anti-inflammatory peptides were resolved in sterile saline (100 μmol/40 μl concentration). All peptides and dexamethasone eye solutions were challenged 3 hour prior to the last pollen application on day 15, 10 minutes after pollen application, and 4 times thereafter at the 3 hour interval.
The orbits were excentrated after the animals were killed with CO2 asphyxia, and specimens were prepared for light microscopic examination. Sectioned specimens were stained with hematoxylin-eosin.
Eosinophils in the standardized fields of conjunctival epithelium, the immediate subepithelial, and the stroma were counted in three non-consecutive fields (magnification ×400) for each treatment in each experiment (12 eyes in each group).

PLA2 = PLA2 (Sus scrofa, UniProt P00592); details: Miele et al., Nature 335, 726-730, 1988; cited from earlier work
Sequence of PLA2 (P00592 23-146): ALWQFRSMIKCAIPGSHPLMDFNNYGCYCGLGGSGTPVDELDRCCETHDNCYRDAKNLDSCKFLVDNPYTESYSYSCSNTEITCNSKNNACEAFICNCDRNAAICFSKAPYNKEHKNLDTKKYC

Compound	Statistical evaluation of clinical scores (Mann-Whitney test), P compared to No treatment group [1]	Statistical evaluation of eosinophil count (Mann-Whitney test), P compared to Livostine [2]	Statistical evaluation of eosinophil count (Mann-Whitney test), P compared to No treatment group [2]	Statistical evaluation of clinical scores (Mann-Whitney test), P compared to Dexamethasone [1]	Statistical evaluation of clinical scores (Mann-Whitney test), P compared to Livostine [1]	Clinical signs (conjunctival redness and edema scores), result in words [1]	Anti-inflammatory activity, overall conclusion in words ([2]; allergic conjunctivitis model in guinea pig, summary of Example 2, listed as SEQ ID NO:3)	Statistical evaluation of eosinophil count (Mann-Whitney test), P compared to Dexamethasone [2]	Histological signs (eosinophil infiltration), result in words ([2]; n=12, P<0.01, SD<10%, Mann-Whitney test)	PLA2 inhibitor activity, in words (PLA2)
C[C@@H]1C[C@H]2[C@@H]3CCC4=CC(=O)C=C[C@]4(C)[C@@]3(F)[C@@H](O)C[C@]2(C)[C@@]1(O)C(=O)CO [Dexamethasone, dexamethasone]	0.000	0.932	0.000							
DPVKG [Peptide E2, synthetic peptide of the invention]	0.000	0.060	0.000	0.050	0.039	statistically significant difference from other groups	excellent anti-inflammatory activity in comparison with other known peptide sequences; also recorded: much higher activity than the steroidal anti-inflammatory dexamethasone	0.028	statistically significant difference from other groups	
GQDP [Peptide E3]	0.016	0.000	0.001	0.000	0.002			0.007		
GTLAKKLT [Peptide P2]	0.279	0.000	0.004	0.000	0.000			0.000		
HDMNKVLDL [Peptide A2, known peptide, antiflammin]	0.382	0.000	0.161	0.002	0.003			0.000		
KVLD [Peptide A4, core tetrapeptide of antiflammins]	0.082	0.045	0.001	0.000	0.000			0.028		inactive
MQMKKVLDS [Peptide A3, known peptide, antiflammin]	0.000	0.000	0.007	0.089	0.043	statistically significant difference from other groups		0.000		
PVKG [Peptide E1]	0.001	0.000	0.002	0.017	0.012	statistically significant difference from other groups		0.000		
RKLMEI (PKLMEI) [Peptide P1]	0.009	0.000	0.002	0.001	0.003	statistically significant difference from other groups		0.000		
SHLRKVFDK [Peptide A1, known peptide, antiflammin]	0.003	0.006	0.000	0.007	0.009	statistically significant difference from other groups		0.004		

From patent publication US7037502B2, “Peptide with the amino acid sequence of KVLDGQDP having anti-inflammatory properties” (priority 2001, dated 2006)
